This note sets out measurements from article PMC12668308, “A Novel Antimalarial Agent that Inhibits Protein Synthesis in Plasmodium falciparum” (Angewandte Chemie (International Ed. in English), 2025).

Values joined by “and” are separate entries in the source; they are usually repeats but may differ in a detail not shown here. Identical values can stand only once. Like-named read-outs stand apart in the source and are kept apart here.

For one test, the system named is Dd2b2^31-R1.1. The test is described as follows: [3H]-hypoxanthine incorporation assay. Format: cell-based, Plasmodium falciparum.
The next test has as its system Dd2b2^31-R2.1. The test is described as follows: [3H]-hypoxanthine incorporation assay. Format: cell-based, Plasmodium falciparum.
The subject of another test is Dd2b2^WT. Nature of the test: [3H]-hypoxanthine incorporation assay. Format: cell-based, Plasmodium falciparum. Particulars: for IC50: Plasmodium falciparum.
In another test the test system is 3D7^WT. Nature of the test: [3H]-hypoxanthine incorporation assay. Format: cell-based. Particulars: Plasmodium falciparum, 3D7; 72-h assay; mean±s.d.; read-out: 3D7^WT IC50. The method, then:
(§1) ^[a] 72-h [^3H] hypoxanthhine incorporation assay; Data is expressed as mean±s.d.. The assay was performed in three independent biological experiments, each in biological duplicates.
(§2) P. falciparum asexual blood stage parasites were cultured in human red blood cells (RBC, Blutspende SRK, Zurich) at a hematocrit of 5% in RPMI 1640 medium. The RPMI 1640 medium (ThermoFisher Scientific #51800−043) was supplemented with the following: 24 mM NaHCO3 (pH 7.3, Sigma-Aldrich #31437−500G-R), 25 mM Hepes (Sigma-Aldrich #H4034−500G), 0.36 mM hypoxanthine (Sigma-Aldrich # H9377−25G), 100 µg mL^-1 neomycin (Sigma-Aldrich #N6386−100G) and 0.5% Albumax II (Thermo Fisher #11021−045). Additionally, 2 mM choline chloride (279 mg/L, Sigma-Aldrich #C7527−100G) was added to the culture to block the induction of sexual commitment as described. ^[31^] The RPMI 1640 medium and components were dissolved in water (Milli-Q purified), stirred for at least 3 h, and then sterile filtered (0.22 μm pore size) with a bottle top filter (Corning # 431118). Parasite cultures were maintained in an atmosphere of 3% O2, 4% CO2, and 93% N2 in air-tight chambers at 37 °C. The [^3H]-hypoxanthine incorporation assay was used to test compound activity in the specific parasite lines as described.^[32^] Briefly, compounds were dissolved in DMSO (10 mM) and diluted in a hypoxanthine-free culture medium. A limiting dilution was performed over a 64-fold range (6-step twofold dilution) in a 96-well plate in duplicates. For every starting concentration, a limiting dilution was performed over a 64-fold range (6-step twofold dilution) in a 96-well plate in two biological duplicates. Parasites were added at 100 µL to each well containing the compound to obtain a final parasitemia of 0.3% and haematocrit of 1.25%. The plates were incubated for 48 h before 0.25 µCi of [^3H]-hypoxanthine was added per well for an additional 24 h. Parasites were harvested on a glass-fiber filter with a Microbeta FilterMate cell harvester (Perkin Elmer, Waltham, USA) and radioactivity was counted using a MicroBeta2 liquid scintillation counter (Perkin Elmer, Waltham, US). The results were recorded, processed by subtraction of the mean background signal obtained from the uninfected RBC controls and expressed as percentage of untreated controls. The fifty percent inhibitory concentration (IC50) was calculated by using nonlinear, four parameter (variable slope) curve fitting as described ^[33^] after importing into GraphPad Prism (version 8.3.0).

The next test relates to 3D7^Cas9 pfmdr1 G182S. Format: cell-based, Plasmodium falciparum. To be noted: 3D7^Cas9 pfmdr1 G182S vs 3D7^WT. The procedure: as §1, §2
The P. falciparum 3D7 wild type parasites in the ring stage were transfected as described.^[20] Infected RBCs collected from a 5 ml culture of synchronous ring stage parasites (5-6% parasitemia at ) were added to 250 µl of packed RBCs and were co-transfected with 50µg of Cas9 and 50 µg of donor plasmids using a Bio-Rad Gene Pulser Xcell Electroporation System (single exponential pulse, 310 V, 250 µF). 24 hours post-transfection, 5 nM WR99210 (MedChemExpress #HY-116387) was added to the culture medium for six days to select for gene-edited parasites, and henceforth parasites were maintained in normal culture medium until a stably propagating parasite population was obtained. After ~4 weeks post-transfection, stably propagating parasite population were obtained. The transgenic parasite line (3D7^pfmdr1 G182S) was cloned out using an established plaque assays via limiting dilution.^[35^] […]

Setting [1] is: Plasmodium falciparum, read-out: mean IC50 value ± s.d.

Consider `CN1CCN(Cc2ccc(O)c(NC(=O)c3cccc(Oc4cc(C(F)(F)F)ccn4)c3)c2)CC1` [Compound 31, N-(2-hydroxy-5-((4-methylpiperazin-1-yl)methyl)phenyl)-3-((4-(trifluoromethyl)pyridin-2-yl)oxy)benzamide], for which the entries for the “IC50 fold change relative to Dd2b2^WT” value with Dd2b2^31-R1.1 (Dd2b2^31-R1.1), with Dd2b2^31-R2.1 (Dd2b2^31-R2.1) and in the test on Dd2b2^WT (Dd2b2^WT) were 2.7, 16.9 and 1.0, respectively. The IC50 (in general, the midpoint of a concentration-inhibition curve) with Dd2b2^31-R1.1 (setting [1]) is 35.8 ± 11.2 nM; with Dd2b2^31-R2.1 (setting [1]) it was 225 ± 35.3 nM; in the test with Dd2b2^WT (72 h, read-out: Parent (Dd2b2^WT) IC50) it was 4.5 ± 0.7 nM; in the test on Dd2b2^WT (read-out: mean IC50 value ± s.d.) it was 13.3 ± 1.7 nM; in the test on 3D7^WT, 2.4 ± 0.3 nM. Besides, the “IC50 fold shift relative to 3D7^WT strain” value with 3D7^Cas9 pfmdr1 G182S was 7 and 6.6.
